Results from PMC6435784, “Gut Microbiota-Based Pharmacokinetics and the Antidepressant Mechanism of Paeoniflorin” (Frontiers in Pharmacology, 2019).

Assays:
[1] = system: rat intestinal microbial culture; test: Metabolism of paeoniflorin by intestinal bacteria in vitro; assay type: in vitro ADME; conditions: 24-h incubation
Description: The colon contents of six rats were pooled, and 5 g of the sample was transferred to a ziplock bag and then mixed thoroughly with anaerobic medium (100 mL). After mixing completely, the cultures were stored at 37°C and preincubated for 1 h. Then, 10 μL of paeoniflorin (100 mg/mL) was added to fresh rat intestinal microbial culture (990 μL) under anaerobic conditions of N2, with a final concentration of 1 mg/mL of paeoniflorin in the culture system ([Hattori et al., 1988]). The inactivated bacteria solution was used as a negative control. Cultures were incubated at 37°C for 0, 2, 6, 12, and 24 h, respectively. After terminated the reaction with 3 volumes of acetonitrile, samples were vortexed for 30 s and then centrifuged at 16,162 g for 5 min. A total of 100 μL of the supernatant were transferred to a centrifuge tube, centrifuged at 16,162 g for 5 min and filtered through a 0.45 μm microporous membrane. Finally, 5 μL of the filtrate solution was collected for analysis.

gut microbiota = test: Analysis of microbial diversity by 16S rRNA gene sequencing; assay type: in vivo, rat; conditions: depression model rats, oral 20 mg/kg, 2 weeks of treatment
Description: Rat feces of the chronic unpredictable depression model group were collected after 2 weeks of treatment. Three groups, including the normal control group, the model control group, the paeoniflorin treatment group (oral, 20 mg/kg) were selected. Barcoded pyro sequencing analysis was performed on the V3 and V4 regions by 16S rRNA gene sequencing.

[2] = Metabolism of paeoniflorin in the homogenate of the liver tissue in vitro; assay type: in vitro ADME, rat; conditions: 100 μg/mL paeoniflorin, 37°C, 1 h, compared with intestinal bacteria incubation system, ***P < 0.001
Description: Fresh rat liver tissue was cut into small pieces, 0.05 M Tris-HC1 buffer (1:2, pH 7.4) was added. The mixture was homogenized in a mixer and paeoniflorin was added to the liver homogenate at a final concentration of 100 μg/mL. Then, the mixture was incubated at 37°C for 1 h. The above reactions were terminated by the addition of 0.4 mL acetonitrile (1:2). Proteins were precipitated by centrifugation at 10,625 g for 5 min, and 10 μL supernatant was injected into the UPLC system for quantification.

C[C@@]12C[C@@]3(O)O[C@@H](O1)[C@]1(COC(=O)c4ccccc4)[C@H]3C[C@@]12O[C@@H]1O[C@H](CO)[C@@H](O)[C@H](O)[C@H]1O [Paeoniflorin]
transformation of paeoniflorin in intestinal bacteria ([1]; 37°C, anaerobic, 1 mg/mL paeoniflorin, normal gut bacteria): completely transformed | metabolism of paeoniflorin in inactivated gut bacteria (control group) ([1]; inactivated bacteria solution): not metabolized | abundance of Facklamia, Jeotgalicoccus, Ruminiclostridium_5 and Eubacterium_coprostanoligenes_group in feces (gut microbiota): decreased | abundance of Lactobacillus, Lachnospira, Eubacterium_ruminantium_group and Roseburia in feces (gut microbiota): increased | production of benzoic acid in liver tissue homogenate [2]: significantly lower than that in the intestinal bacteria incubation system
